Each block holds one molecule with its values, some of them ahead of it.
Experiments:
[1] = Photostability by continuous confocal scanning of stained cells; format: physicochemical; settings: approximately 8 min continuous confocal scanning, stained MCF-7 cells; Lyso-1 1 μM, LysoTracker Red 50 nM
Procedure: FIGS. 10A-10E show (FIG. 10E) Signal loss (%) of fluorescent emission of Lyso-1 (1 μM) and LysoTracker® Red (50 nM) with increasing time. Excitation wavelength: 405 nm (for Lyso-1) and 560 nm (for LysoTracker® Red); emission filter: 515-560 nm (for Lyso-1) and 581-688 nm (for LysoTracker® Red); (FIGS. 10A-10D) fluorescent images of living MCF-7 cells stained with Lyso-1(1 μM) and LysoTracker® Red (50 nM) at 0 and 5 min.
It has been shown that the signal loss of Lyso-1 is less than 20% in approximately 8 min. In contrast, LysoTracker® Red lost almost approximately 70% of its fluorescence signal.
For Photostability study, MCF-7 cells were stained with 1.0 μM Lyso-1 and LysoTracker® Red for 1 h at 37° C. under 5% CO2. The changes of fluorescence intensity with scan time were determined by CLSM (Zeiss LSM 410, Jena, Germany).
Excitation wavelength: 405 nm (for Lyso-1, 1% laser power) and 560 nm (for LysoTracker® Red, 18% laser power); emission filter: 515-560 nm (for Lyso-1) and 581-688 nm (for LysoTracker® Red). The data were obtained from replicate experiments (n=3).

lysosomes of MCF-7 cells = test: In situ imaging of lysosomal esterase / colocalization with LysoTracker Red; format: cell-based
Procedure: FIGS. 9A-9H show the colocalization imaging of MCF-7 cells stained with 1.0 μM Lyso-1 and 50 nM LysoTracker®-red for 30 min at 37° C. (FIG. 9A and FIG. 9E) Bright-field image. (FIG. 9B and FIG. 9F) Confocal image from Lyso-1 on channel 1 (λex=405 nm, λem=515-560 nm). (FIG. 9C and FIG. 9G) Confocal image from LysoTracker® Red on channel 2 (λex=559 nm, λem=585-610 nm). (FIG. 9D and FIG. 9H) Merged image of channels 1 and 2. Scale bar=20 μm.
A discrete labeling pattern that matched the distribution of lysosomes was obtained using Lyso-1 (FIG. 9a-d). […] To verify that the probes can selectively target lysosomes, the probe 6 without of lysosome targeting morpholines was also tested for cell imaging as a comparison. […] These experiments clearly verified that Lyso-1 can selectively target lysosome.
MCF-7 cells were seeded at a density of 2×10^4/well in the chamber (LAB-TEK, Chambered Coverglass System) and grown for 18 h at 37° C. in a humidified 5% CO2 incubator. The cells were washed twice with 1×PBS buffer and 0.3 mL fresh serum-free medium containing 1.0 μM Lyso-1 solution was then added to the chamber.
For co-staining between Lyso-1 and LysoTracker® Red, the MCF-7 cells were first incubated with 1.0 μM Lyso-1 solution for 2 h, and then the cells were rinsed and incubated in the medium containing 100 nM Lyso-tracker Red for 1 h.
Lyso-1 was excited at 405 nm (1% laser power) and the fluorescence was collected at 515-560 nm; LysoTracker® Red was excited at 560 nm (18% laser power) and fluorescence was collected at 581-688 nm.

esterase [2] = test: Selectivity of Lyso-1 fluorescence response, esterase versus interference substances; format: biochemical; settings: Lyso-1 10 μM; esterase 0.50 U mL^−1 vs MgCl2, CaCl2, vitamin C, H2O2, BO3−, lysozyme, cathepsin B; PBS pH 7.4, 37° C.
[3] = test system: MCF-7 breast cancer cells; test: Cell viability by MTT assay; format: cell-based; settings: 1, 2, 4, 8, or 16 μM for 24 h
Procedure: The samples were incubated with 1, 2, 4, 8, or 16 μM Lyso-1 for 24 h, and the cell viabilities are close to 100% under the testing conditions, indicative of low cytotoxicity of the probe.
MCF-7 cancer cells were seeded in 96-well plates at a density of 4×10^4 cells/mL. After 24 h incubation, the cells were exposed to a series of doses of the probe Lyso-1 at 37° C. After the designated time intervals, the sample wells were washed twice with 1×PBS buffer and freshly prepared MTT solution (0.5 mg/mL, 100 μL) in culture medium was added into each sample well. The MTT medium solution was carefully removed after 3 h incubation in the incubator for the sample wells, whereas the control wells without addition of MTT solution were washed twice with 1×PBS buffer. DMSO (100 μL) was then added into each well and the plate was gently shaken for 10 min at room temperature to dissolve all the precipitates formed. The absorbance of individual wells at 570 nm was then monitored by the microplate Reader. The absorbance of MTT in the sample well was determined by the differentiation between the absorbance of the sample well and that of the respective control well. Cell viability was expressed by the ratio of the absorbance of MTT in the sample wells to that of the cells incubated with culture medium only.

esterase [4] = test: Fluorescence response of Lyso-1 upon incubation with esterase; format: biochemical
Procedure: The measurements were performed in 10 mM PBS (pH 7.4) with λex/em=356/532 nm.
For esterase at 0.50 U mL^−1, the fluorescence increase could reach a plateau in 15 min, which is sigmoidal in shape due to the two-stepwise sequential hydrolysis of Lyso-1 to 2. The fluorescence could only be fully generated after the two-step reaction completed and formation of intramolecular hydrogen bonds. […] The detection limit (3 S/m, in which S is the standard deviation of blank measurements, and m is the slope of the linear equation) is determined to be 2.4×10-3 U mL^−1.
(§1) The UV-vis absorption spectra were obtained using UV-vis spectrometer (Shimadzu, UV-1700, Japan). PL measurements were carried out on a Perkin-Elmer LS-55 equipped with a xenon lamp excitation source and a Hamamatsu (Japan) 928 PMT, using 90° angle detection for solution samples. The cells were imaged by fluorescence microscope (Nikon Al Confocal microscope). The time-dependence fluorescence scans of Lyso-1 were conducted with microplate reader (TECAN). ^1H and ^13C NMR spectra were measured on a Bruker ARX 400 NMR spectrometer. The molecular mass was acquired using ion trap-time-of-flight mass spectrometry (MS-IT-TOF) (Shimadzu).

[5] = test system: lysosomal esterase in MCF-7 cells; test: Real-time fluorescence imaging of lysosomal esterase activity; format: cell-based
Procedure: As the incubation time elapses, the fluorescence intensity increases quickly which reaches a maximum at 8 min. The real-time fluorescence images shown in FIG. 12 indicate that the probe is non-fluorescent in the cell culture media.
[…] The intensity images of Lyso-1 were recorded with the emission in the range of 515-560 nm. Excitation wavelength: 405 nm.

[6] = Photoluminescence / AIE properties in solvent-water mixtures; format: physicochemical
Description: At ˜532 nm, there is almost no fluorescence for Lyso-1, whereas a strong emission with a 200-fold enhancement is observed for 2 from the keto tautomer ([…]). The weak emission at a short wavelength (λmax=˜441 nm) is from the enol tautomer of 2 (FIG. 1). It is noted that there is almost no overlap between the absorption and emission spectrum for salicyladazine dye 2, which is highly desirable for imaging applications.
With gradual addition of water into THF from fw=0 to 80 vol %, the emission intensity keeps slow increasing. […] At fw=99 vol %, a 14-fold enhancement of emission has been observed as compared to that in THF, showing an obvious AIE effect.
as §1

mitochondria = test: Mitochondria imaging; format: cell-based
Procedure: FIGS. 30A-30C show Colocalization imaging of Hela cells stained with 5.0 μM MitoGreen-2 and 50 nM MitoTracker®-red.
MitoGreen-1 and MitoGreen-2 can be easily modified by adding further reactive groups to detect certain enzymes or bioactive molecules.

β-galactosidase = test: Hydrolysis of probe by β-galactosidase (fluorescence turn-on); format: biochemical; settings: KH2PO4 buffer pH 4.5, 30° C., excitation 365 nm, emission 542 nm
Procedure: Excited at 365 nm. Fluorescence intensity was measured at 542 nm.
After reaction of the probe with β-galactosidase, compound 9 is obtained.

esterase in MCF-7 cells = test: Esterase activity in living cells by Lyso-1 fluorescence imaging after inhibitor pretreatment; format: cell-based; settings: MCF-7 cells pretreated with 0.4 mM
Procedure: (§2) For example, the addition of 0.1 mM AEBSF causes a fluorescence decrease in 10% at 532 nm compared with that without AEBSF. The higher concentrations of AEBSF such as 0.4 and 1.0 mM lead to larger fluorescence decrease of 40% and 65%, respectively. […] Thus, the probe Lyso-1 has a use to screen inhibitors of esterase.

esterase [7] = test: Effect of esterase inhibitor on esterase activity (Lyso-1 fluorescence readout); format: biochemical; settings: Lyso-1 10 μM, esterase 0.50 U mL^−1
Procedure: as §2

Compound: CC(=O)Oc1cc(OCCCCN2CCOCC2)ccc1/C=N/N=C/c1ccc(OCCCCN2CCOCC2)cc1OC(C)=O [Lyso-1, ((1E,1′E)-hydrazine-1,2-diylidenebis(methanylylidene))bis(3-(4-morpholinobutoxy)-6,1-phenylene) diacetate]
signal loss of fluorescent emission [1]: less than 20% | overlap between fluorescence images of probe and LysoTracker Red (lysosomes of MCF-7 cells; MCF-7 cells, 1.0 μM probe, no washing): excellent overlap | fluorescence induced by esterase relative to interferences (times brighter) (esterase [2]): 70-200 times | cell viability [3]: ~100% | fluorescence change without esterase (stability of the probe) (esterase [4]; control without esterase, same period of time, PBS pH 7.4): hardly changes | time for fluorescence increase to reach a plateau (esterase [4]; esterase 0.50 U mL^−1, Lyso-1 10 μM, 10 mM PBS pH 7.4): 15 min | incubation time at which fluorescence intensity reaches a maximum ([5]; 1.0 μM, room temperature): 8 min

Compound: Oc1cc(OCCCCN2CCOCC2)ccc1/C=N/N=C/c1ccc(OCCCCN2CCOCC2)cc1O [compound 2, 6,6′-((1E,1′E)-hydrazine-1,2-diylidenebis(methanylylidene))-bis(3-(4-morpholinobutoxy)-phenol)]
quantum yield of keto tautomer emission (printed "0=") ([6]; 10 μM in DMSO/water (1:99 v/v), ~532 nm): 9.6% | emission enhancement at ~532 nm compared with Lyso-1 ([6]; 10 μM in DMSO/water (1:99 v/v), λex=356 nm, keto tautomer emission): 200 fold | enhancement of emission at fw=99 vol % compared to that in THF (AIE effect) ([6]; THF/water, 10 μM, excitation 356 nm): 14 fold

binding to mitochondria (mitochondria): bind well to mitochondria
Compound: Oc1cc(OCCCCCC[n+]2ccccc2)ccc1/C=N/N=C/c1ccc(OCCCCCC[n+]2ccccc2)cc1O.[Br-].[Br-] [MitoGreen-2, 1,1′-(((((1E,1′E)-hydrazine-1,2-diylidenebis(methanylylidene))bis(3-hydroxy-4,1-phenylene))bis(oxy))bis(hexane-6,1-diyl))bis(pyridin-1-ium) bromide]

signal loss of fluorescent emission [1]: approximately 70%
Compound: CN(C)CCNC(=O)CCc1ccc2n1[B-](F)(F)[N+]1=C(c3ccc[nH]3)C=CC1=C2 [LysoTracker® Red, reference compound]

Compound: OCC1O[C@@H](Oc2ccccc2/C=N/N=C/c2ccccc2OC2O[C@H](CO)[C@H](O)[C@H](O)[C@H]2O)C(O)C(O)C1O (stereo in doubt) [β-gal-1, (2S,3S,4R,5S,6S)-2-(hydroxymethyl)-6-(2-((E)-((E)-(2-(((2R,3R,4S,5R,6R)-3,4,5-trihydroxy-6-(hydroxymethyl)tetrahydro-2H-pyran-2-yl)oxy)benzylidene)hydrazono)methyl)phenoxy)tetrahydro-2H-pyran-3,4,5-triol]
fluorescence upon reaction with β-galactosidase (β-galactosidase): leads to fluorescence

binding to mitochondria (mitochondria): bind well to mitochondria
Compound: Oc1cc(OCCCCCC[P+](c2ccccc2)(c2ccccc2)c2ccccc2)ccc1/C=N/N=C/c1ccc(OCCCCCC[P+](c2ccccc2)(c2ccccc2)c2ccccc2)cc1O.[Br-].[Br-] [MitoGreen-1, (((((1E,1′E)-hydrazine-1,2-diylidenebis(methanylylidene))bis(3-hydroxy-4,1-phenylene))bis(oxy))bis(hexane-6,1-diyl))bis(triphenylphosphonium) bromide]

Compound: CC(=O)Oc1cc(OCCCCBr)ccc1/C=N/N=C/c1ccc(OCCCCBr)cc1OC(C)=O [compound 6, ((1E,1′E)-hydrazine-1,2-diylidenebis(methanylylidene))bis(3-(4-bromobutoxy)-6,1-phenylene) diacetate]
fluorescence of cells (lysosomes of MCF-7 cells; MCF-7 cells incubated with 1.0 μM for 2 h): Very weak fluorescence | staining pattern of cells (lysosomes of MCF-7 cells; MCF-7 cells incubated with 5.0 μM): non-specific staining of the entire cell | time after which probe turns on in the entire cells ([5]; 5 μM): 2 h

Compound: NCCc1ccc(S(=O)(=O)F)cc1 [AEBSF, 4-(2-aminoethyl)benzenesulfonyl fluoride]
Lyso-1 fluorescence in pretreated cells (esterase in MCF-7 cells): obviously decreased fluorescence | fluorescence decrease at 532 nm compared with that without AEBSF (esterase [7]; 0.1 mM AEBSF): 10% | fluorescence decrease at 532 nm compared with that without AEBSF (esterase [7]; 0.4 mM AEBSF): 40% | fluorescence decrease at 532 nm compared with that without AEBSF (esterase [7]; 1.0 mM AEBSF): 65%

From US20150192589A1, “METHOD USING FLUORESCENT TURN-ON PROBES FOR CELL-SPECIFIC DETECTION” (Agency for Science, Technology and Research, priority 2014, published 2015)
